ChEMBL document CHEMBL1909281, “FDA-approved drug labeling for the study of drug-induced liver injury” (Drug Discov Today, 2011)

System: Hepatotoxicity
Details: Liver

| Compound | LTKB_BD DILI severity score |
| --- | --- |
| CC(C)(C)NC(=O)[C@@H]1C[C@@H]2CCCC[C@@H]2CN1C[C@@H](O)[C@H](Cc1ccccc1)NC(=O)[C@H](CC(N)=O)NC(=O)c1ccc2ccccc2n1 | 3 |
| CN[C@H]1CC[C@@H](c2ccc(Cl)c(Cl)c2)c2ccccc21 [SERTRALINE] | 3 |

System: Hepatotoxicity
Assay: FDA Liver Toxicity Knowledge Base Benchmark Dataset (LTKB-BD) drugs of most concern for DILI
Details: not given

| Compound | LTKB_BD DILI severity score |
| --- | --- |
| COc1ccccc1Oc1c(NS(=O)(=O)c2ccc(C(C)(C)C)cc2)nc(-c2ncccn2)nc1OCCO [BOSENTAN] | 7 |
| CC(O)(CS(=O)(=O)c1ccc(F)cc1)C(=O)Nc1ccc(C#N)c(C(F)(F)F)c1 (stereo unspecified) [BICALUTAMIDE] | 8 |
| CC[C@@H](CO)NCCN[C@@H](CC)CO [ETHAMBUTOL] | 8 |
| C[C@](N)(Cc1ccc(O)c(O)c1)C(=O)O [METHYLDOPA] | 8 |
| CC[C@H]1OC(=O)[C@H](C)[C@@H](O[C@H]2C[C@@](C)(OC)[C@@H](O)[C@H](C)O2)[C@H](C)[C@@H](O[C@@H]2O[C@H](C)C[C@H](N(C)C)[C@H]2O)[C@](C)(O)C[C@@H](C)C(=O)[C@H](C)[C@@H](O)[C@]1(C)O [ERYTHROMYCIN] | 5 |
| O=C1CN(/N=C/c2ccc(-c3ccc([N+](=O)[O-])cc3)o2)C(O)=N1 [DANTROLENE] | 8 |
| C[C@]12COC(=O)C[C@@H]1CC[C@@H]1[C@@H]2CC[C@@]2(C)[C@H]1CC[C@]2(C)O [OXANDROLONE] | 8 |
| Cc1cc(C(=O)NNCc2ccccc2)no1 [ISOCARBOXAZID] | 5 |
| Nc1ccn([C@@H]2CS[C@H](CO)O2)c(=O)n1 [LAMIVUDINE] | 8 |
| CCc1cccc2c3c([nH]c12)C(CC)(CC(=O)O)OCC3 (stereo unspecified) [ETODOLAC] | 8 |
| Cc1cn([C@H]2C=C[C@@H](CO)O2)c(=O)[nH]c1=O [STAVUDINE] | 8 |
| CCCCc1oc2ccccc2c1C(=O)c1cc(I)c(OCCN(CC)CC)c(I)c1 [AMIODARONE] | 8 |
| CN(C/C=C/C#CC(C)(C)C)Cc1cccc2ccccc12 [TERBINAFINE] | 8 |
| CO[C@H]1/C=C/O[C@@]2(C)Oc3c(C)c(O)c4c(O)c(c(/C=N/N5CCN(C)CC5)c(O)c4c3C2=O)NC(=O)/C(C)=C\C=C\[C@H](C)[C@H](O)[C@@H](C)[C@@H](O)[C@@H](C)[C@H](OC(C)=O)[C@@H]1C [RIFAMPIN] | 8 |
| O=C(O)c1cn(C2CC2)c2cc(N3CCNCC3)c(F)cc2c1=O [CIPROFLOXACIN] | 7 |
| CCN(CC)CCNC(=O)c1c(C)[nH]c(/C=C2\C(=O)Nc3ccc(F)cc32)c1C [SUNITINIB] | 8 |
| Cc1nnc(C(C)C)n1[C@@H]1C[C@H]2CC[C@@H](C1)N2CC[C@H](NC(=O)C1CCC(F)(F)CC1)c1ccccc1 [MARAVIROC] | 3 |
| CC(=O)N1CCN(c2ccc(OCC3COC(Cn4ccnc4)(c4ccc(Cl)cc4Cl)O3)cc2)CC1 (stereo unspecified) [KETOCONAZOLE] | 8 |
| Cc1cc(NS(=O)(=O)c2ccc(N)cc2)no1 [SULFAMETHOXAZOLE] | 7 |
| COc1cc(C)c(/C=C/C(C)=C/C=C/C(C)=C/C(=O)O)c(C)c1C [ACITRETIN] | 5 |

| Compound | LTKB_BD DILI severity score |
| --- | --- |
| CCC[C@@]1(CCc2ccccc2)CC(O)=C([C@H](CC)c2cccc(NS(=O)(=O)c3ccc(C(F)(F)F)cn3)c2)C(=O)O1 | 8 |
| Nc1ccc(C(=O)O)c(O)c1 [AMINOSALICYLIC ACID] | 5 |
| Cc1oncc1C(=O)Nc1ccc(C(F)(F)F)cc1 [LEFLUNOMIDE] | 8 |
| CC(C)c1nc(CN(C)C(=O)N[C@H](C(=O)N[C@@H](Cc2ccccc2)C[C@H](O)[C@H](Cc2ccccc2)NC(=O)OCc2cncs2)C(C)C)cs1 [RITONAVIR] | 5 |
| Cc1cn([C@H]2C[C@H](N=[N+]=[N-])[C@@H](CO)O2)c(=O)[nH]c1=O [ZIDOVUDINE] | 8 |
| C[C@@](Cc1ccc(O)c(O)c1)(NN)C(=O)O.O [CARBIDOPA] | 4 |
| CC(CCc1ccccc1)NCC(O)c1ccc(O)c(C(N)=O)c1 (stereo unspecified) [LABETALOL] | 8 |
| Cc1ccnc2c1NC(=O)c1cccnc1N2C1CC1 [NEVIRAPINE] | 8 |
| CS(=O)(=O)OCCCCOS(C)(=O)=O [BUSULFAN] | 8 |
| CC1=C(CC(=O)O)c2cc(F)ccc2/C1=C\c1ccc([S+](C)[O-])cc1 (stereo unspecified) | 8 |
| Nc1nc(NC2CC2)c2ncn([C@H]3C=C[C@@H](CO)C3)c2n1 [ABACAVIR] | 8 |
| CN(Cc1cnc2nc(N)nc(N)c2n1)c1ccc(C(=O)N[C@@H](CCC(=O)O)C(=O)O)cc1 [METHOTREXATE] | 3 |
| COc1cc(C(=O)NS(=O)(=O)c2ccccc2C)ccc1Cc1cn(C)c2ccc(NC(=O)OC3CCCC3)cc12 [ZAFIRLUKAST] | 8 |
| O=C1CC[C@@]2(O)[C@H]3Cc4ccc(O)c5c4[C@@]2(CCN3CC2CC2)[C@H]1O5 [NALTREXONE] | 3 |
| O=c1[nH]cnc2c1ncn2[C@H]1CC[C@@H](CO)O1 [DIDANOSINE] | 8 |
| NC(=O)N1c2ccccc2C=Cc2ccccc21 [CARBAMAZEPINE] | 7 |
| CN(C)/N=N/c1[nH]cnc1C(N)=O [DACARBAZINE] | 6 |
| CS(=O)(=O)CCNCc1ccc(-c2ccc3ncnc(Nc4ccc(OCc5cccc(F)c5)c(Cl)c4)c3c2)o1 [LAPATINIB] | 8 |
| C#C[C@]1(O)CC[C@H]2[C@@H]3CCC4=Cc5oncc5C[C@]4(C)[C@H]3CC[C@@]21C [DANAZOL] | 8 |

Same assay, conditions: Liver

| Compound | LTKB_BD DILI severity score |
| --- | --- |
| O=C1CN(/N=C/c2ccc([N+](=O)[O-])o2)C(=O)N1 [NITROFURANTOIN] | 8 |
| Nc1c2c(nc3ccccc13)CCCC2 [TACRINE] | 7 |
| Nc1ccn([C@@H]2O[C@H](CO)[C@@H](O)[C@@H]2O)c(=O)n1 [CYTARABINE] | 3 |
| Cc1ccc(C(=O)c2cc(O)c(O)c([N+](=O)[O-])c2)cc1 [TOLCAPONE] | 8 |
| O=C(O)Cc1ccccc1Nc1c(Cl)cccc1Cl [DICLOFENAC] | 7 |
| Clc1ccccc1CN1CCc2sccc2C1 [TICLOPIDINE] | 4 |
| CCCc1cc(=O)[nH]c(=S)[nH]1 [PROPYLTHIOURACIL] | 8 |
| OC(Cn1cncn1)(Cn1cncn1)c1ccc(F)cc1F [FLUCONAZOLE] | 8 |
| Sc1ncnc2nc[nH]c12 [MERCAPTOPURINE ANHYDROUS] | 8 |
| CNCCC=C1c2ccccc2CCc2ccccc21 [NORTRIPTYLINE] | 8 |
